According to US11208412B2 (DAEGU-GYEONGBUK MEDICAL INNOVATION FOUNDATION, priority 2017, dated 2021):

Experiments:
Assay in all cases: Kinase selectivity, DiscoverX scanMAX Kinase assay panel (% control)
Assay type in all cases: binding
[1] = biological target: T1, kinases of the scanMAX Kinase assay panel (Homo sapiens, UniProt O14733); details: MKK7; 1 uM
T1 construct: purchased DiscoverX Co. (contract measurement) scanMAX Kinase assay panel
T1 sequence (O14733 1-419): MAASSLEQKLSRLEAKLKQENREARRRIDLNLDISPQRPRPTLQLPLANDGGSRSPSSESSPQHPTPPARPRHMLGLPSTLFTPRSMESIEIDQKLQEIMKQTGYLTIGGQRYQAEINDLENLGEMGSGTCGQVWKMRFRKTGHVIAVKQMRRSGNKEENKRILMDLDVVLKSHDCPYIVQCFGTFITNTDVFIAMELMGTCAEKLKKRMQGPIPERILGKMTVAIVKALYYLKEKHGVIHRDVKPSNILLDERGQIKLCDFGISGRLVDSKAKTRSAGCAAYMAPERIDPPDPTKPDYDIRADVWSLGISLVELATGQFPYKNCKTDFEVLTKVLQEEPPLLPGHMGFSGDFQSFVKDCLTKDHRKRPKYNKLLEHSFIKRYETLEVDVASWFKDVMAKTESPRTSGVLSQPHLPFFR
Protocol: (§1) The following experiment was performed to evaluate the activity of the compounds of the present invention to inhibit many enzymes.
(§2) Particularly, the compounds of Examples 8, 64 and 104 were selected among all of those compounds of the invention. DiscoverX Co. was asked to measure the enzyme (kinase) selectivity, and the experiment was performed using scanMAX™ Kinase assay panel.
(§3) Wherein, the concentration of the drug treated to each enzyme was 1 uM in DMSO and the control percentage (% control) was determined by the following Equation 1. (example compound−positive control)/(negative control−positive control)×100 [Equation 1]
(§4) Herein, the positive control indicates the compound showing the % control of 0%, and the negative control indicates DMSO showing the % control of 100%. The enzyme selectivity in the present invention is defined as follows: When the % control for each enzyme is less than 35% (<35%), it is judged that the compound has the activity to the corresponding enzyme.

[2] = biological target: T2, kinases of the scanMAX Kinase assay panel (Homo sapiens, UniProt O95835); details: LATS1; 1 uM
T2 construct: purchased DiscoverX Co. (contract measurement) scanMAX Kinase assay panel
T2 sequence (O95835 1-1130): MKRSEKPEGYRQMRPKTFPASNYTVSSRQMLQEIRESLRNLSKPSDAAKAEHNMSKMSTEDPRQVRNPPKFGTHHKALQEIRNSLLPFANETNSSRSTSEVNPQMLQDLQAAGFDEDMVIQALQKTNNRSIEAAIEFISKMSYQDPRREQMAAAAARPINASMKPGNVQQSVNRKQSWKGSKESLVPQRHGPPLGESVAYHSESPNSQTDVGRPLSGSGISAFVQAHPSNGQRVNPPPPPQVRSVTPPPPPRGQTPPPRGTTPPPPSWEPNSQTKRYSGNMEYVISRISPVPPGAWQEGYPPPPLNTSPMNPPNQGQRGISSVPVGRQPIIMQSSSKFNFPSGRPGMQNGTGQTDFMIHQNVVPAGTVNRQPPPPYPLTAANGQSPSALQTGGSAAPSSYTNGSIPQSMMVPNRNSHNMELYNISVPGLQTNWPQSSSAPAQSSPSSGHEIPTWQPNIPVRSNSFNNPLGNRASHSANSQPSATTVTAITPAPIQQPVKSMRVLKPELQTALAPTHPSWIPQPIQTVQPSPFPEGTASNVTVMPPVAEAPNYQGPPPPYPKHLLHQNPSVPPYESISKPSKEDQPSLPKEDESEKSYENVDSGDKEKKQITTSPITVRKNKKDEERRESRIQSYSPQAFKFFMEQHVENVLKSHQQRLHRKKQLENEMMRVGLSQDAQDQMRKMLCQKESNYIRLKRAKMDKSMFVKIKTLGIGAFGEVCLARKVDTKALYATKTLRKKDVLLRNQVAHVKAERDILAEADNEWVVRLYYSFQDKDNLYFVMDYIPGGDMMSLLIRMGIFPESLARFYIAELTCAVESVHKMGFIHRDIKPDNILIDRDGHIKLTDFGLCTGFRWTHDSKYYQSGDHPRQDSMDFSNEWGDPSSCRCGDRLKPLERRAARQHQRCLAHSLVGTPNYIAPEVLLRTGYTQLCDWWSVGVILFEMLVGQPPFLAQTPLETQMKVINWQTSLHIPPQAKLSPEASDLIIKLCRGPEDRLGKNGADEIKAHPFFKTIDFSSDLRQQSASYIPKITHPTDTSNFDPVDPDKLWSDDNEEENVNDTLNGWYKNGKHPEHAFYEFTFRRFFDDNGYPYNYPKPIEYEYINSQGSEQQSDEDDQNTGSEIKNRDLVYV
Protocol: as §1, §2, §3, §4

[3] = biological target: T3, kinases of the scanMAX Kinase assay panel (Homo sapiens, UniProt Q16288); details: kinase TRKC; 1 uM in DMSO
T3 construct: purchased DiscoverX Co. (contract measurement) scanMAX Kinase assay panel
Protocol: as §1, §2, §3, §4

[4] = biological target: T4, kinases of the scanMAX Kinase assay panel (Homo sapiens, UniProt P08069); details: IGF1R; 1 uM
T4 construct: purchased DiscoverX Co. (contract measurement) scanMAX Kinase assay panel
Protocol: as §1, §2, §3, §4

[5] = biological target: T5, kinases of the scanMAX Kinase assay panel (Homo sapiens, UniProt P17948); details: FLT1; 1 uM
T5 construct: purchased DiscoverX Co. (contract measurement) scanMAX Kinase assay panel
Protocol: as §1, §2, §3, §4

[6] = biological target: T6, kinases of the scanMAX Kinase assay panel (Homo sapiens, UniProt Q96J92); details: kinase WNK4; 1 uM in DMSO
T6 construct: purchased DiscoverX Co. (contract measurement) scanMAX Kinase assay panel
Protocol: as §1, §2, §3, §4

[7] = biological target: T7, kinases of the scanMAX Kinase assay panel (Homo sapiens, UniProt Q92630); details: DYRK2; 1 uM
T7 construct: purchased DiscoverX Co. (contract measurement) scanMAX Kinase assay panel
T7 sequence (Q92630 1-601): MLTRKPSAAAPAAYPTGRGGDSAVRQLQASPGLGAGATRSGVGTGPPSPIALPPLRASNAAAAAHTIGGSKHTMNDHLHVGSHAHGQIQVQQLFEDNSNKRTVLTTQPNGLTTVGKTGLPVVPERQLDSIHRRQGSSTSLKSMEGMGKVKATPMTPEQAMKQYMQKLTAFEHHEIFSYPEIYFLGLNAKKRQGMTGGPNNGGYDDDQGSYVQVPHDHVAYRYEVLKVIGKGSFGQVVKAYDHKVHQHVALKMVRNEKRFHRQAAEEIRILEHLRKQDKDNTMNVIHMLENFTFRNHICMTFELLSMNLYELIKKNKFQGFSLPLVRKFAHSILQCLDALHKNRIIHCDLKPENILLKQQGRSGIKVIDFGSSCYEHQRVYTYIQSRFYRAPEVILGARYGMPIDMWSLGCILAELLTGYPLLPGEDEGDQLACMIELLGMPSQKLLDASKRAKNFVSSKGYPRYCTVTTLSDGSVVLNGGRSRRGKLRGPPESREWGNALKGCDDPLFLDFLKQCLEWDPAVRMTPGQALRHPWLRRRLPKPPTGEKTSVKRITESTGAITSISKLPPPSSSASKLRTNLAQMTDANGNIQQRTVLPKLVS
Protocol: as §1, §2, §3, §4

T4 sequence (P08069 31-1367): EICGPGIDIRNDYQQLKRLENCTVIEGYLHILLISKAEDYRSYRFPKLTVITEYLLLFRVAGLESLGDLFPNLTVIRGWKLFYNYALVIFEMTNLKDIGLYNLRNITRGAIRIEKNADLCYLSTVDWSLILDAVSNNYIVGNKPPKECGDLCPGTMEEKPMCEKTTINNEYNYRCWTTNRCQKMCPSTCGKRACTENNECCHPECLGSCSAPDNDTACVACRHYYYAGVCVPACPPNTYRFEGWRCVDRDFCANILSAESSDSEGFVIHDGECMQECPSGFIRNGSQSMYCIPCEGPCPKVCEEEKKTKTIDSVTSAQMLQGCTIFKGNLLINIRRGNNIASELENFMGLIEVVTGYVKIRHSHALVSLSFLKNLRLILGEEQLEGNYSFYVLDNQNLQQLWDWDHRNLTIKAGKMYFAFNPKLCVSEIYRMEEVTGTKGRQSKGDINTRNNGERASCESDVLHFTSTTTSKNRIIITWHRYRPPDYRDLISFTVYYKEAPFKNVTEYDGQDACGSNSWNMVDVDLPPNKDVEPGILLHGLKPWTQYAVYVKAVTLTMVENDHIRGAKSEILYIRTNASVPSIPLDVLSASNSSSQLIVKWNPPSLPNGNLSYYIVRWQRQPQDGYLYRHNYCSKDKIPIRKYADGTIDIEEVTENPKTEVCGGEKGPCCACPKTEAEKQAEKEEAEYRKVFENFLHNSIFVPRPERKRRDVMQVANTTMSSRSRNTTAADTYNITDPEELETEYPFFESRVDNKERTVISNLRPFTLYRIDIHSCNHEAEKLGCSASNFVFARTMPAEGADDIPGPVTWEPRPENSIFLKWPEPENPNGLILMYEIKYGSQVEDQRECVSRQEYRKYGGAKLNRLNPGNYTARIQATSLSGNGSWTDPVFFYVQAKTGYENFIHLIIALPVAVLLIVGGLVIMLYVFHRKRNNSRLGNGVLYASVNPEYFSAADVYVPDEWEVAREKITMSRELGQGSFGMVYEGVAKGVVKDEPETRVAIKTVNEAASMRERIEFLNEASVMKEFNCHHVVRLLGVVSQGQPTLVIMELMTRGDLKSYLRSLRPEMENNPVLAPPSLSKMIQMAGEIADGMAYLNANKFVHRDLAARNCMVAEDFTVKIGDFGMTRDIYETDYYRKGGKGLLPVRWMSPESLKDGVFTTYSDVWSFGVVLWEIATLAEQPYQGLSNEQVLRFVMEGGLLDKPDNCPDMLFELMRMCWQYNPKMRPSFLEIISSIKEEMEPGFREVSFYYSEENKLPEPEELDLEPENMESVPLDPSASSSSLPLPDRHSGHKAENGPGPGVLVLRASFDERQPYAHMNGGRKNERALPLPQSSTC
T5 sequence (P17948 27-1338): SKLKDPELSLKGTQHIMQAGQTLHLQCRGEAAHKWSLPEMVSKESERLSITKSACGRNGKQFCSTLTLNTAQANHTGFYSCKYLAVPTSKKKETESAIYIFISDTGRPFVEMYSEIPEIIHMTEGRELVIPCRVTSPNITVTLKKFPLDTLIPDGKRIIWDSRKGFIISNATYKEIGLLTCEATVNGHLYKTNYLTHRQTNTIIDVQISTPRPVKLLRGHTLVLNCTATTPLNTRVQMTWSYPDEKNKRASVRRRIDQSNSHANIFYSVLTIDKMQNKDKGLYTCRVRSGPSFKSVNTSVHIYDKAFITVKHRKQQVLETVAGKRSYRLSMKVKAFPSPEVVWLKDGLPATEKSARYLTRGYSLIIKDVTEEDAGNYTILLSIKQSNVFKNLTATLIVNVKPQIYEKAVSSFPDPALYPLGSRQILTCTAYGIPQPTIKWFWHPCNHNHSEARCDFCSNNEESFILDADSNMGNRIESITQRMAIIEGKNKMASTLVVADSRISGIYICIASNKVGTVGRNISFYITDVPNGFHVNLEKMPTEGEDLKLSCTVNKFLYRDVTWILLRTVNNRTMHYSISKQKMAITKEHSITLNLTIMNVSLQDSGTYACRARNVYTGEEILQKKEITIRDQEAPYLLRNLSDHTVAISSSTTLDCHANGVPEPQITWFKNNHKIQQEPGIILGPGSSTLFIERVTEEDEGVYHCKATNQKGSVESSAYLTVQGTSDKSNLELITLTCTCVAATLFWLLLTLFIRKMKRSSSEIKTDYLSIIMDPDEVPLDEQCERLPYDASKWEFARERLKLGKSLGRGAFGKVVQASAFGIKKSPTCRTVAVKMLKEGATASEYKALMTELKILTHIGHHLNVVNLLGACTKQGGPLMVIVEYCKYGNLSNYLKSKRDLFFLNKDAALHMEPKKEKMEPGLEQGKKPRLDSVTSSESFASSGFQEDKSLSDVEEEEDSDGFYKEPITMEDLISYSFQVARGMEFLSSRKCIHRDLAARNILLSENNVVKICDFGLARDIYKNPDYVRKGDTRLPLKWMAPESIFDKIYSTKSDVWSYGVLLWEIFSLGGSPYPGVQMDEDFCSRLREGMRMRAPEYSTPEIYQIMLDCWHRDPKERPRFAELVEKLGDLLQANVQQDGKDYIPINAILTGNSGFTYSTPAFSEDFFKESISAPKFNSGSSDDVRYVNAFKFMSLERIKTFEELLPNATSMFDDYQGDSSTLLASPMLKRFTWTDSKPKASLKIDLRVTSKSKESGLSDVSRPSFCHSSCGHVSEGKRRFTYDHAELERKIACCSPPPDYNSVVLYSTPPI
T6 sequence (Q96J92 whole entry): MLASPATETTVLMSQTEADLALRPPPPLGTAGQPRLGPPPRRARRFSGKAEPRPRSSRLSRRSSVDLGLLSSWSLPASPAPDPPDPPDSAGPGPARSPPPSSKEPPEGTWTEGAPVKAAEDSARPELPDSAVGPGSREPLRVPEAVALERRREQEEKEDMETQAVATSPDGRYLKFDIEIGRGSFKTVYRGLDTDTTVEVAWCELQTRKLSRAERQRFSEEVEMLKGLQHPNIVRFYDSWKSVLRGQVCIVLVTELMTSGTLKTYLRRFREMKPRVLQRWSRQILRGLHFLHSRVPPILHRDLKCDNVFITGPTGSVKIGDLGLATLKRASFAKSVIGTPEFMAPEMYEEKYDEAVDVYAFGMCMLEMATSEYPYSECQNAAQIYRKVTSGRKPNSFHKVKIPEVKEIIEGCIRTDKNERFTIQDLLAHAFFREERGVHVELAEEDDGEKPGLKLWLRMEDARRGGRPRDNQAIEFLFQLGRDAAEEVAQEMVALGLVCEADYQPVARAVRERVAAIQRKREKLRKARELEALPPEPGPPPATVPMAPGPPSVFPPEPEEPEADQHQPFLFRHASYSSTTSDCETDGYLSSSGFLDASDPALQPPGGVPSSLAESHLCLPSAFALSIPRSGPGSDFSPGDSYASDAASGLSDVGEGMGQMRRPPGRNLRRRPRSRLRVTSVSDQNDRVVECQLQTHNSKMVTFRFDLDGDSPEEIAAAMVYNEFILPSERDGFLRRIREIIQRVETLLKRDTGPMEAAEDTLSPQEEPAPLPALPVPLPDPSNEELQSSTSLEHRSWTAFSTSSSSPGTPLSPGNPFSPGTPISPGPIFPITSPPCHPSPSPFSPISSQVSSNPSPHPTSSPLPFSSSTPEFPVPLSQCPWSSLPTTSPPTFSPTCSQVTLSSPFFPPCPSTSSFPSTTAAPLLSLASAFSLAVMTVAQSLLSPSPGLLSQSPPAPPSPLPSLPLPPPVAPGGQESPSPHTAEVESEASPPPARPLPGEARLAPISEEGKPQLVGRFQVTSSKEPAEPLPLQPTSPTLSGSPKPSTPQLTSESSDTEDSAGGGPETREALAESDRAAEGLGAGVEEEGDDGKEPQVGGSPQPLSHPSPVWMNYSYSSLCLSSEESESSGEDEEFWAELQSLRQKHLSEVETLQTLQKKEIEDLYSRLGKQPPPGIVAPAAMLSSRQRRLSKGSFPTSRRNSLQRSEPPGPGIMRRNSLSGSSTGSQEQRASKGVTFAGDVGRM
T3 sequence (Q16288 32-839): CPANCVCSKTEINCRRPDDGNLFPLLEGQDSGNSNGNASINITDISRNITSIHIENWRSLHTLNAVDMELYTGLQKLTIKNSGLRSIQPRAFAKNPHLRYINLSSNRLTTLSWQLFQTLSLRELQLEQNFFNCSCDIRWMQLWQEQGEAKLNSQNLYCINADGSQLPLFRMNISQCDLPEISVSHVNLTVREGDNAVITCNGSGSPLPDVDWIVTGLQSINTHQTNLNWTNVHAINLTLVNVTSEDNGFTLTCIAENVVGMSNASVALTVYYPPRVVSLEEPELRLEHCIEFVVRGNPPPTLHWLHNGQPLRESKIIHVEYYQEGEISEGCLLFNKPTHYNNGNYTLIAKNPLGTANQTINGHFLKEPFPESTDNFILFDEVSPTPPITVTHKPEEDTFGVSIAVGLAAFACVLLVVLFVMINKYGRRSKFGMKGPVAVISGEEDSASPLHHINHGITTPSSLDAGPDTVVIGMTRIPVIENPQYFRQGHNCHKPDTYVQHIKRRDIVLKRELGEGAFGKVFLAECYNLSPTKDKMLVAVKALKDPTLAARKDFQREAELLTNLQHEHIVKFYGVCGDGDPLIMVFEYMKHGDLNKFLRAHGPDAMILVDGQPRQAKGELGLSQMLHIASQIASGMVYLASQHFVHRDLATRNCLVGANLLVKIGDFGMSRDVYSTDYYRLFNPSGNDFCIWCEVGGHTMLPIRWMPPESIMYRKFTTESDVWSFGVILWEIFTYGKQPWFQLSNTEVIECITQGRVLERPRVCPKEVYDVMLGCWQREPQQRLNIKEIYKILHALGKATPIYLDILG

SMILES	remaining binding at 1 µM [1] [%]	remaining binding at 1 µM [2] [%]	remaining binding at 1 µM [3] [%]	remaining binding at 1 µM [4] [%]	remaining binding at 1 µM [5] [%]	remaining binding at 1 µM [6] [%]	remaining binding at 1 µM [7] [%]
CCNc1nc(Nc2ccc(C(=O)N3CCC(N4CCOCC4)CC3)cc2OC)nc2[nH]cc(C(F)(F)F)c12 [Example 104, (4-((4-(ethylamino)-5-(trifluoromethyl)-7H-pyrrolo[2,3-d]pyrimidine-2-yl)amino)-3-methoxyphenyl)(4-morpholinopiperidine-1-yl)methanone]	100	100	100	12	100	100	25
CNc1nc(Nc2ccc(C(=O)N3CCOCC3)cc2OC)nc2[nH]cc(C#N)c12 [Example 1, 2-((2-methoxy-4-(morpholine-4-carbonyl)phenyl)amino)-4-(methylamino)-7H-pyrrolo[2,3-d]pyrimidine-5-carbonitrile]	48	100	60	82	99	81	22
CC1(Nc2nc(Nc3cnn([C@H]4CCN(C5COC5)C[C@@H]4F)c3Cl)nc3[nH]cc(C#N)c23)CC1 [Example 52, 2-((5-chloro-1-((3S,4S)-3-fluoro-1-(oxetane-3-yl)piperidine-4-yl)-1H-pyrazole-4-yl)amino)((1-methylcyclopropyl)amino)-7H-pyrrolo[2,3-d]pyrimidine-5-carbonitrile]	6.1	35	30	19	6.2	100	0.8
